Each block holds one molecule with its values, some of them ahead of it. Peptide text beside a SMILES is read from it.
Experiments:
p85α in LN229 cells = assay: NLRP6-induced p85α degradation with pathway inhibitors, immunoblot, LN229; format: cell-based, Human; conditions: LN229 cells transfected with Flag-NLRP6, immunoblot
Protocol: (§1) For coimmunoprecipitation, cell lysate was collected and incubated with the indicated antibody at 4 °C overnight followed by incubation with Protein A/G beads (Pierce, IL, USA) at 4 °C for 2 h. The unbound proteins were washed away with lysis buffer. The precipitated proteins were separated from the beads. To detect protein expression in frozen tissues or cells, total protein was extracted using RIPA lysis buffer (Beyotime, Shanghai, China) supplemented with protease and phosphatase inhibitors (Beyotime, Shanghai, China). The protein concentration was determined using a BCA protein quantification kit (Beyotime, Shanghai, China) or BCA Protein Assay Kit (BEB, Nanjing, China). The proteins were separated by SDS–PAGE, transferred to polyvinylidene fluoride (PVDF) membranes (Bio–Rad, CA, USA), and incubated with the indicated antibodies. The bands were detected with the ECL Advanced Western blot Detection Kit (Thermo Fisher Scientific, MA, USA) or Super ECL Chemiluminescent Substrate Kit (BEB, Nanjing, China) on a ChemiDoc Touch System (Bio–Rad, CA, USA) or Tanon 4600 (Tanon, Shanghai, China). The band intensities were quantified using Image Lab software (Bio–Rad, CA, USA) or ImageJ software (National Institutes of Health, MD, USA).

AKT = conditions: cited from earlier work
Protocol: To investigate whether NLRs could regulate PI3K/AKT pathway, the FOXO luciferase reporter assay was performed to detect the transcriptional activity of FOXO, which is one of the best characterized targets of PI3K/AKT pathway. Two independent oligonucleotides targeting each of 22 human NLRs were mixed and transfected into LN229 cells. The nontargeting oligonucleotides served as a negative control. The knockdown efficiency targeting each NLR was confirmed by qRT-PCR (Supplementary Fig. 1a). […] Thus, interrupting the interaction between NLRP6 and p85α appears to be an attractive strategy to inhibit tumour growth. α-Helices are the fundamental recognition elements in protein-protein interactions and may serve as ideal inhibitors of macromolecular interactions. According to the observations that the SR domain (amino acids 1–301) on p85α interacted with the NOD domain (amino acids 1 ...

PI3K/AKT pathway [1] = assay: PI3K/AKT activation by NLRP6 overexpression with MK-2206; format: cell-based
Protocol: as §1

recombinant NLRP6 = target: T1, recombinant NLRP6 (Homo sapiens, UniProt P59044); assay: Biolayer interferometry (BLI) binding of peptides to recombinant NLRP6; conditions: Octet Red 96, biotin-NLRP6 on streptavidin biosensors, 30 °C, PBS with 0.01% Tween-20, global 1:1 fitting, printed in picture Fig. 6b, representative of three independent experiments
T1 construct: DNA encoding full-length NLRP6 was codon optimized; His (N); MBP (N); made in house; host or cells: E. coli (DE3)
T1 sequence (P59044 1-892): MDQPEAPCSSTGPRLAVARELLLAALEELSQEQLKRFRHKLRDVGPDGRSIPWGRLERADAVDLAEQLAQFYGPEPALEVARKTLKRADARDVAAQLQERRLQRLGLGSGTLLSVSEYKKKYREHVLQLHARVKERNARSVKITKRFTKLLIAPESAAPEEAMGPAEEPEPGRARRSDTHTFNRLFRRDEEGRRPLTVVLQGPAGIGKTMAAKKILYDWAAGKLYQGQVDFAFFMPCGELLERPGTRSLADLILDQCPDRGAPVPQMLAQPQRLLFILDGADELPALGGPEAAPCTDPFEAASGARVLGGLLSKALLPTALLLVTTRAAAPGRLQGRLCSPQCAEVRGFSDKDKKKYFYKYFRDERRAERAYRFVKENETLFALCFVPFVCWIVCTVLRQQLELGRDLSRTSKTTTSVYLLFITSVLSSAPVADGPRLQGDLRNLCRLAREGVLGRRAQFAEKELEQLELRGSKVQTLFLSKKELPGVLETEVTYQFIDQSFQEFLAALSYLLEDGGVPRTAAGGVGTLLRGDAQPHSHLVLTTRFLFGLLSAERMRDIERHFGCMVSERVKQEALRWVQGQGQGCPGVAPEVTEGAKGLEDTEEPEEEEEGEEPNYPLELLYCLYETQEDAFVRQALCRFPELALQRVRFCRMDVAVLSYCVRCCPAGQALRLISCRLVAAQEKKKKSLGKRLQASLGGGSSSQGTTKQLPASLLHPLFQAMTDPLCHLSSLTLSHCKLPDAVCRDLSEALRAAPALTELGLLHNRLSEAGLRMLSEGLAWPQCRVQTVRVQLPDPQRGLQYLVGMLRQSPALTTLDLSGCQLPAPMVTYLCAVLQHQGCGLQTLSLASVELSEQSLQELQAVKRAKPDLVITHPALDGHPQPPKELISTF
Protocol: DNA encoding full-length NLRP6 was codon optimized and chemically synthesized by Genewiz (Soochow, China). The DNA sequence was subcloned into NdeI-XhoI sites of a pDB-His-MBP vector (kindly given by Pro. Chenggui Han, China Agricultural University, Beijing, China). Recombinant NLRP6 protein was expressed and purified following previous reports, with slight modifications. Briefly, the protein was expressed in E. coli (DE3) at 16 °C with 0.5 mM IPTG induction overnight. Then, the protein was purified by Ni affinity and gel filtration chromatography. The p85α WT and p85α mutant sequences were chemically synthesized and subcloned into BamHI-XhoI sites of a pGEX-6P-1 plasmid by GenScript (Nanjing, China). The E. coli (DE3) transformed with the plasmids were grown in LB medium at 37 °C. The culture medium was supplemented with 0.5 mM IPTG followed by incubation at 16 °C for 16–18 h. […] The protein extinction coefficient was calculated by ProtParam, and the protein concentration was determined by the ultraviolet spectrophotometry method.
Eleven α-helical peptides were synthesized (Supplementary Data 7). […] The interaction between the peptides and NLRP6 was determined by BLI using an Octet Red 96 instrument (FortéBio, CA, USA). […] Responses (nanometre shift) were calculated using data that were double reference subtracted using reference wells and nonspecific binding of the biosensor to the analyte. […]

PI3K/AKT pathway [2] = assay: Immunoblot of PI3K/AKT pathway with Pep9 and SC-79; format: cell-based
Protocol: as §1

purified NLRP6 = assay: ELISA, binding of HRP-conjugated peptide to purified NLRP6; conditions: ELISA, 1 h
Protocol: DNA encoding full-length NLRP6 was codon optimized and chemically synthesized by Genewiz (Soochow, China). The DNA sequence was subcloned into NdeI-XhoI sites of a pDB-His-MBP vector (kindly given by Pro. Chenggui Han, China Agricultural University, Beijing, China). Recombinant NLRP6 protein was expressed and purified following previous reports, with slight modifications. Briefly, the protein was expressed in E. coli (DE3) at 16 °C with 0.5 mM IPTG induction overnight. Then, the protein was purified by Ni affinity and gel filtration chromatography. The p85α WT and p85α mutant sequences were chemically synthesized and subcloned into BamHI-XhoI sites of a pGEX-6P-1 plasmid by GenScript (Nanjing, China). The E. coli (DE3) transformed with the plasmids were grown in LB medium at 37 °C. The culture medium was supplemented with 0.5 mM IPTG followed by incubation at 16 °C for 16–18 h. The proteins were purified by glutathione-affinity chromatography (Smart-Life Sciences, Changzhou, China) followed by gel filtration chromatography (Cytiva, MA, USA) using PBS. The protein extinction coefficient was calculated by ProtParam, and the protein concentration was determined by the ultraviolet spectrophotometry method.
The 96-well plate was coated with bovine serum albumin (BSA) or purified NLRP6. HRP-conjugated PepC or HRP-conjugated Pep9 was incubated with BSA or NLRP6 for 1 h, and the unbound peptide was washed away. The HRP substrate was added, and the absorbance was detected at 450 nm. For the competitive ELISA, the 96-well plate was coated with purified p85α. The binding of NLRP6 to p85α competed with 10 μM PepC or 5 μM, 10 μM, 20 μM Pep9 for 1 h.

Molecule: Cn1cnc(N)c2ncnc1-2 [3-methyladenine (3-MA), 3-methyladenine]
- NLRP6-induced p85α degradation (in words) (p85α in LN229 cells): attenuated NLRP6-induced p85α degradation

Molecule: NC1(c2ccc(-c3nc4ccn5c(=O)[nH]nc5c4cc3-c3ccccc3)cc2)CCC1 [MK-2206]
- AKT inhibition (in words) (AKT): highly potent and selective allosteric AKT inhibitor
- PI3K/AKT activation by NLRP6 overexpression (in words) (PI3K/AKT pathway [1]): NLRP6 overexpression could not activate PI3K/AKT pathway anymore when MK-2206 was introduced

Molecule: Cl.N [NH4Cl]
- NLRP6-induced p85α degradation (in words) (p85α in LN229 cells): attenuated NLRP6-induced p85α degradation

- Kd (recombinant NLRP6): 9 µM
Molecule: CC(C)C[C@H](NC(=O)[C@H](CC(N)=O)NC(=O)[C@H](CCCCN)NC(=O)[C@H](CO)NC(=O)[C@H](CO)NC(=O)[C@@H](NC(=O)[C@H](CCC(N)=O)NC(=O)[C@H](CO)NC(=O)[C@H](CC(C)C)NC(=O)[C@H](CCCCN)NC(=O)[C@H](Cc1ccccc1)NC(=O)[C@H](Cc1ccccc1)NC(=O)[C@H](Cc1c[nH]cn1)NC(=O)[C@H](CCCCN)NC(=O)[C@H](CC(C)C)NC(=O)[C@H](CC(C)C)NC(=O)[C@H](Cc1ccc(O)cc1)NC(=O)[C@H](CCC(N)=O)NC(=O)[C@H](CC(C)C)NC(=O)[C@@H](NC(=O)[C@H](CC(C)C)NC(=O)[C@H](Cc1c[nH]c2ccccc12)NC(=O)[C@H](Cc1ccc(O)cc1)NC(=O)[C@H](CCC(N)=O)NC(=O)[C@H](Cc1c[nH]cn1)NC(=O)[C@@H]1CCCN1)[C@@H](C)O)[C@@H](C)O)C(=O)O [Pep9] (H-PHQYWLTLQYLLKHFFKLSQTSSKNL-OH)

Molecule: CCOC(=O)C1=C(N)Oc2ccc(Cl)cc2C1C(C#N)C(=O)OCC (stereo not shown) [SC-79]
- effect of SC-79 on Pep9 inhibition of PI3K/AKT pathway (in words) (PI3K/AKT pathway [2]): The inhibition of Pep9 on PI3K/AKT pathway was reversed when SC79 was added
- AKT binding and activation (in words) (AKT; cytosol): specifically binds to the PH domain of AKT and activates AKT in the cytosol

Molecule: CO/C1=C\C(C)=C\[C@@H](C)[C@@H](O)[C@@H](C)C/C(C)=C/C=C/[C@H](OC)[C@@H]([C@@H](C)[C@@H](O)[C@H](C)[C@@]2(O)C[C@@H](O)[C@H](C)[C@@H](C(C)C)O2)OC1=O [bafilomycin A1 (BafA1), bafilomycin A1]
- NLRP6-induced p85α degradation (in words) (p85α in LN229 cells): attenuated NLRP6-induced p85α degradation

Molecule: CCN(CC)CCCC(C)Nc1ccnc2cc(Cl)ccc12 (stereo not shown) [chloroquine (CQ), chloroquine]
- NLRP6-induced p85α degradation (in words) (p85α in LN229 cells): attenuated NLRP6-induced p85α degradation

- binding of HRP-conjugated peptide to NLRP6 (in words) (purified NLRP6): could bind to NLRP6
B1: HRP-conjugated Pep9: Horseradish peroxidase (HRP)-conjugated Pep9 (conjugate)
peptide: EADVEQQALTLPDLAEQFAPPDIAPPLLIKLVEAIEKKGLECSTLYRTQSSSNLAELRQLLDCDTPSVDLEMIDVHVLADAFKRYLLDLPNPVIPAAVYSEMISLAPEVQSSEEYIQLLKKLIRSPSIPHQYWLTLQYLLKHFFKLSQTSSKNLLNARVLSEIFSPMLFRFSAASSDNTENLIKVIEILISTEWNERQPAPALPPKPPKPTTVAN
modifications: left off: HRP, end not stated, kept
